{"source": "paper PMC5739422", "about": "“Metabolomic profiling and stable isotope labelling of Trichomonas vaginalis and Tritrichomonas foetus reveal major differences in amino acid metabolism including the production of 2-hydroxyisocaproic acid, cystathionine and S-methylcysteine” (PLoS ONE, 2017)", "tested_on": "recombinant T. vaginalis cysteine synthase (CS)", "assay": "coupled assay with MGL1 and LDH, NADH oxidation at […] nm", "assay_type": "biochemical, Trichomonas vaginalis", "details": "200 mM potassium phosphate pH 7.8, 37°C"}
{"smiles": "N[C@@H](COP(=O)(O)O)C(=O)O", "note": "[OPS]", "values": [{"measurement": "Km", "setting": "cysteine synthase reaction, 3 mM Na2S", "value": "18.2 ± 0.8", "unit": "mM"}]}
{"smiles": "CS", "note": "[CH3SNa]", "values": [{"measurement": "Km", "setting": "SMC synthase reaction, 10 mM OPS", "value": "4.3 ± 1.6", "unit": "mM"}]}
